Here are results for 17 compounds from ChEMBL document CHEMBL1153288, “1,3,4-Oxadiazole substituted naphthyridines as HIV-1 integrase inhibitors. Part 2: SAR of the C5 position” (Bioorg Med Chem Lett, 2009).

Series [1] in a line: Inhibition of recombinant HIV integrase strand transfer activity. Details: species or system Human immunodeficiency virus.
Series [2] has as its system Human immunodeficiency virus. Kind of series: Antiviral activity against G-pseudotyped HIV expressed in 293T cells with pGI3Luci. The format is functional, organism-based. The note with it: Human immunodeficiency virus 1, HEK-293T.
Series [3] in a line: Therapeutic index, CC50 for human 293T cells to EC50 for G-pseudotyped HIV. Type of series: cell-based. To be noted: read-out: Ratio CC50/EC50.

What is called IC50 is the midpoint of a concentration-inhibition curve. A word on the EC50: it is the concentration giving half of the maximal effect. Take `CCOC(=O)C(=O)Nc1nc(-c2nnc(Cc3ccc(F)cc3)o2)c(O)c2ncccc12`: the IC50 in series [1] amounted to 33 nM. The same compound gave an EC50 in series [2] of 1300 nM. For the same compound, the selectivity ratio in series [3] was determined as 10.

Take `O=C1CNCCN1c1nc(-c2nnc(Cc3ccc(F)cc3)o2)c(O)c2ncccc12`: in series [1], the IC50 turned out to be 38 nM. Also, the EC50 in series [2] turned out to be 240 nM. Besides, the selectivity ratio in series [3] was determined as 58.

On to `CNc1nc(-c2nnc(Cc3ccc(F)cc3)o2)c(O)c2ncccc12`, for which the IC50 in series [1] is 74 nM. Moreover, a half-maximal effect in series [2] (EC50) was put at 400 nM. Further, in series [3], the selectivity ratio worked out at 30.

For `Cc1ccccc1S(=O)(=O)Nc1nc(-c2nnc(Cc3ccc(F)cc3)o2)c(O)c2ncccc12`, in series [1], the IC50 was 42 nM. For the same compound, in series [2], the concentration giving a half-maximal response (EC50) is 190 nM. The selectivity ratio in series [3] came out at 74.

Regarding `O=C1CCCCN1c1nc(-c2nnc(Cc3ccc(F)cc3)o2)c(O)c2ncccc12`, the IC50 in series [1] was found to be 88 nM. A half-maximal response in series [2] (EC50) required 87 nM. The selectivity ratio in series [3] is greater than 160.

With `CC(=O)Nc1nc(-c2nnc(Cc3ccc(F)cc3)o2)c(O)c2ncccc12`, the IC50 in series [1] is 72 nM. Moreover, in series [2], the EC50 is 110 nM. In addition, in series [3], the selectivity ratio stood at 127.

With `O=C(c1nc(-c2nnc(Cc3ccc(F)cc3)o2)c(O)c2ncccc12)N1CCOCC1`, the IC50 in series [1] was 130 nM. This compound displayed a concentration giving a half-maximal response (EC50) in series [2] of 97 nM. In addition, the selectivity ratio in series [3] was 134.

In the case of `CN1CCN(C(=O)c2nc(-c3nnc(Cc4ccc(F)cc4)o3)c(O)c3ncccc23)CC1`, the IC50 in series [1] is 44 nM. Moreover, in series [2], the response was half-maximal at 97 nM (EC50). In addition, the selectivity ratio in series [3] was greater than 144.

As to `Oc1c(-c2nnc(Cc3ccc(F)cc3)o2)nc(-c2ccccn2)c2cccnc12`, the IC50 in series [1] worked out at 30 nM. Moreover, in series [2], the EC50 stood at 56 nM. Also, the selectivity ratio in series [3] is 40.

`CNC(=O)c1nc(-c2nnc(Cc3ccc(F)cc3)o2)c(O)c2ncccc12`: the IC50 in series [1] was 120 nM. The EC50 in series [2] came to 150 nM. Moreover, the selectivity ratio in series [3] was found to be 43.

Regarding `NC(=O)c1nc(-c2nnc(Cc3ccc(F)cc3)o2)c(O)c2ncccc12`, in series [1], the IC50 was 100 nM. In series [2], the EC50 worked out at 160 nM. In addition, in series [3], the selectivity ratio was 75.

For the compound `O=C(O)c1nc(-c2nnc(Cc3ccc(F)cc3)o2)c(O)c2ncccc12`, the IC50 in series [1] worked out at 860 nM. This compound also gave an EC50 in series [2] of 4400 nM. The selectivity ratio in series [3] was greater than 3.

As for `CC(C)NC(=O)c1nc(-c2nnc(Cc3ccc(F)cc3)o2)c(O)c2ncccc12`, the IC50 in series [1] was 190 nM. This compound also had a concentration giving a half-maximal response (EC50) in series [2] of 98 nM. The selectivity ratio in series [3] came to 22.

As to `O=C(NCCO)c1nc(-c2nnc(Cc3ccc(F)cc3)o2)c(O)c2ncccc12`, the half-inhibitory concentration (IC50) in series [1] is 130 nM. In series [2], the EC50 worked out at 1490 nM. In series [3], the selectivity ratio is greater than 9.

Consider `O=C(NCCCO)c1nc(-c2nnc(Cc3ccc(F)cc3)o2)c(O)c2ncccc12`, for which the IC50 in series [1] came to 71 nM. In series [2], this compound registered a 50% effective concentration (EC50) of 470 nM. In series [3], the selectivity ratio was greater than 30.

As for `CN(C)C(=O)C(=O)N(C)c1nc(-c2nnc(Cc3ccc(F)cc3)o2)c(O)c2ncccc12`, in series [1], the IC50 is 85 nM. This compound returned an EC50 in series [2] of 310 nM. Besides, the selectivity ratio in series [3] was greater than 40.

Regarding `CC(=O)Nc1cccc(-c2nc(-c3nnc(Cc4ccc(F)cc4)o3)c(O)c3ncccc23)c1`, the half-inhibitory concentration (IC50) in series [1] amounted to 80 nM. For the same compound, in series [2], the EC50 is 10 nM. Further, the selectivity ratio in series [3] was 1400.
